Several values for one entry are separate records, joined by “and”; a condition that tells them apart may be missing. Equal values may be shown once.
Experiments:
gelatin [1] = test: Advanced Glycation End Product Assay (AGE Assay), fluorescence intensity (FLR, glycation) readout; format: biochemical; conditions: 24 hours
Procedure: (§1) The AGE Assay provides an in vitro method of determining how a test agent impacts glycation. In particular, a material of interest can be applied to gelatin, which acts as a surrogate for collagen (i.e., a heterogeneous mixture of high-average-molecular-mass, water-soluble proteins present in collagen), at neutral pH range. A glycating reagent is added to the gelatin matrix to initialize glycation reaction. The resulting AGEs detected by a spectrophotometer. When testing a material of interest, such as lactobionic acid and/or white water lily extract is added to the gelatin sample, it reacts with the proteins in the gelatin, much in the same way as it would with collagen. Glycation reaction will be initiated when glycating reagent is added into this material and gelatin matrix and will produce AGEs. A positive (pos) glycation control group is set up the same way as testing material groups to contain gelatin and glycating reagent but less any treatment material. The positive control group depicts how much glycation and yellowness can be formed without perturbation by any treatment material. The spectrophotometer detects the fluorescence intensity (“FLR”) or yellowness (b*) associated with the resulting AGEs, which can then be correlated to the amount of glycation that occurs in skin. Lower b* and FLR values correspond to less AGEs, and thus less glycation.
(§2) Three replicates of each test samples are prepared in a 96-well plate (e.g., a FALCON brand 96-well tissue culture plate or equivalent) at equal and defined volume. The plate(s) containing the test samples are placed in a standard cell culture incubator (e.g., THERMO SCIENTIFIC FORMA brand incubator available from Fisher Scientific, Waltham, MA or equivalent) and incubated for the duration of the test at 37° C. with 5% CO2 and 95% relative humidity. Fluorescence intensity (FLR) and yellowness are measured at the start of test (time=0) and monitored for 24 hours. To measure FLR or b*, the plate(s) containing the test samples are removed from the incubator and placed in a SPECTRAMAX Plus brand spectrophotometer (available from Molecular Devices, Sunnyvale, California) or equivalent. To detect fluorescence intensity (“FLR”), the spectrophotometer is set at 400/465 nm (ex/em). To detect yellowness (b*), the spectrophotometer is set to collect absorbance spectrum from 350 nm to 750 nm in 10 nm increments. The absorbance spectra from the yellowness measurement are then converted to L*a*b* values by a computer using suitable conversion software.
(§3) The change in fluorescence intensity (“ΔFLR”) is determined by comparing the FLR of a well at a sampling time point to the initial FLR at time=0. The change in yellowness (“Δb*”) at a particular time point is determined by comparing the initial b* value at time=0 to the b* value at the time point of interest. To determine the relative amount of glycation or yellowness formed due to a treatment effect compared to the positive glycation control group, which doesn't contain any active treatment, the ΔFLR and Δb* values from a treatment group is normalized against the corresponding values from the positive glycation control group (pos glycation) according to the following equation: […]
(§4) The test samples were prepared in triplicate for each testing group on a 96-well plate with 250 μl volume per well. Each well contains 2.25 mg gelatin (available from Sigma® as Catalog #G1393), the testing material(s) diluted to desired concentration, 40 mM DL-Glyceraldehyde (available from Sigma®, Catalog #G5001-5G), and a sufficient quantity of Dulbecco's phosphate buffered saline (“DPBS”) (available from Gibco's, Catalog #14190-144). The vehicle control contained 2.25 mg gelatin and a sufficient quantity of DPBS. The positive glycation control contained 2.25 mg gelatin, 40 mM DL-glyceraldehyde and DPBS.
(§5) The average glycation, ΔFLR, and yellowness, Δb*, were determined for each sample according to the AGE Assay described herein. The duration of the test was 24 hours. […]

gelatin [2] = test: Advanced Glycation End Product Assay (AGE Assay), yellowness (b*) readout; format: biochemical; conditions: 24 hours; for % Δb* (yellowness) from a treatment vs positive glycation control / Convert to % Δb* inhibition (100%-% Δb*) / Convert to % Δb* inhibition (100-% Δb*): samples 1-3
Procedure: as §1, §2, §3, §4, §5

[3] = 0.101% lactobionic acid, Table 4, samples 1-3
[4] = 0.2% lactobionic acid, Table 2, samples 1-3
[5] = 0.101% lactobionic acid, Table 3

O=C(O)[C@H](O)[C@@H](O)[C@H](O[C@@H]1O[C@H](CO)[C@H](O)[C@H](O)[C@H]1O)[C@H](O)CO [LBA, lactobionic acid]
Mean % ΔFLR inhibition for each group (gelatin [1]; 0.1% LBA, Table 2): 24%
% ΔFLR (glycation) normalized vs positive glycation control (gelatin [1]; 0.1% LBA, Table 2, samples 1-3): 77% and 75%
Convert to % ΔFLR inhibition (100-% ΔFLR) (gelatin [1]; 0.1% LBA, Table 2, samples 1-3): 23% and 25%
Mean % ΔFLR inhibition for each group (gelatin [1]; 0.1% LBA, Table 6): 30%
% ΔFLR (glycation) normalized vs positive glycation ctrl (gelatin [1]; 0.1% LBA, Table 6, samples 1-3): 69% and 71% and 70%
Convert to % ΔFLR inhibition (100-% ΔFLR) (gelatin [1]; 0.1% LBA, Table 6, samples 1-3): 31% and 29% and 30%
Mean % ΔFLR inhibition for each group (gelatin [1]; 0.101% lactobionic acid, Table 4): 27%
% ΔFLR (glycation) normalized vs positive glycation control (gelatin [1]; [3]): 73% and 74%
Convert to % ΔFLR inhibition (100-% ΔFLR) (gelatin [1]; [3]): 27% and 26%
Mean % ΔFLR inhibition for each group (gelatin [1]; 0.2% lactobionic acid, Table 2): 44%
% ΔFLR (glycation) normalized vs positive glycation control (gelatin [1]; [4]): 55% and 56%
Convert to % ΔFLR inhibition (100-% ΔFLR) (gelatin [1]; [4]): 45% and 44%
Mean % Δb* inhibition for each group (gelatin [2]; 0.1% LBA, Table 1): 27%
% Δb* (yellowness) from a treatment vs positive glycation control (gelatin [2]; 0.1% LBA, Table 1): 73%
Convert to % Δb* inhibition (100%-% Δb*) (gelatin [2]; 0.1% LBA, Table 1): 27%
Mean % Δb* inhibition for each group (gelatin [2]; 0.1% LBA, Table 5): 32%
% Δb* (yellowness) from a treatment vs positive glycation control (gelatin [2]; 0.1% LBA, Table 5): 68% and 69% and 67%
Convert to % Δb* inhibition (100-% Δb*) (gelatin [2]; 0.1% LBA, Table 5): 32% and 31% and 33%
Mean % Δb* inhibition for each group (gelatin [2]; [5]): 32%
% Δb* (yellowness) from a treatment vs positive glycation control (gelatin [2]; [5]): 68%
Convert to % Δb* inhibition (100-% Δb*) (gelatin [2]; [5]): 32%
Mean % Δb* inhibition for each group (gelatin [2]; 0.2% lactobionic acid, Table 1): 49%
% Δb* (yellowness) from a treatment vs positive glycation control (gelatin [2]; 0.2% lactobionic acid, Table 1): 50% and 53% and 51%
Convert to % Δb* inhibition (100%-% Δb*) (gelatin [2]; 0.2% lactobionic acid, Table 1): 50% and 47% and 49%
